Assay results as given in ChEMBL document CHEMBL4765389, “Antimicrobial and anti-inflammatory activities of short dodecapeptides derived from duck cathelicidin: Plausible mechanism of bactericidal action and endotoxin neutralization” (Eur J Med Chem, 2020).
Activity calls are given as the source filed them. No cut-off for these calls is given here.

How the values were obtained:
[1] = tested on: Staphylococcus aureus; assay: Antibacterial activity against methicillin-resistant Staphylococcus aureus CCARM 3090 assessed as reduction in bacterial growth incubated for 24 hrs by CLSI based broth dilution method; format: functional; conditions: read-out: MIC100
[2] = Antibacterial activity against multidrug-resistant Pseudomonas aeruginosa CCARM 2095 assessed as fractional inhibitory concentration index incubated for 24 hrs in presence of ciprofloxacin by CLSI based broth dilution method; format: functional
[3] = tested on: RAW264.7; assay: Antiinflammatory activity in mouse RAW264.7 cells assessed as neutralization of LPS binding by measuring LPS-FITC aggregation at 10 uM pretreated with LPS for 1 hr followed by compound addition and measured after 1 hr by flowcytometry analysis (reference value: 48.12 %); format: functional
[4] = tested on: Bacillus subtilis; assay: Antibacterial activity against Bacillus subtilis KCTC 3068 assessed as reduction in bacterial growth incubated for 24 hrs by CLSI based broth dilution method; format: functional; conditions: read-out: MIC100
[5] = tested on: Staphylococcus aureus; assay: Antibacterial activity against Staphylococcus aureus KCTC 1621 assessed as reduction in bacterial growth incubated for 24 hrs in presence of 6 uM NH4Cl by CLSI based broth dilution method; format: functional; conditions: read-out: MIC100
[6] = tested on: Saccharomyces cerevisiae; assay: Antifungal activity against yeast assessed as reduction in fungal growth incubated for 24 hrs by CLSI based broth dilution method; format: functional; conditions: read-out: MIC100
[7] = tested on: DNA; assay: Binding affinity to Escherichia coli pBR322 DNA assessed as increase in DNA retardation at 8 uM incubated for 1 hr by agarose gel electrophoresis relative to control; format: nucleic-acid assay
[8] = tested on: Escherichia coli; assay: Bactericidal activity against Escherichia coli KCTC 1682 assessed as reduction in colony forming unit at MIC measured at 3 hrs by time kill assay; format: functional
[9] = tested on: Staphylococcus aureus; assay: Antibacterial activity against methicillin-resistant Staphylococcus aureus CCARM 3090 assessed as fractional inhibitory concentration index incubated for 24 hrs in presence of chloramphenicol by CLSI based broth dilution method; format: functional
[10] = tested on: Escherichia coli; assay: Antibacterial activity against Escherichia coli KCTC 1682 assessed as reduction in bacterial growth incubated for 24 hrs in presence of 6 uM NH4Cl by CLSI based broth dilution method; format: functional; conditions: read-out: MIC100
[11] = tested on: Staphylococcus aureus; assay: Antibacterial activity against methicillin-resistant Staphylococcus aureus CCARM 3090 assessed as fractional inhibitory concentration incubated for 24 hrs in presence of ciprofloxacin by CLSI based broth dilution method; format: functional
[12] = tested on: Staphylococcus aureus; assay: Antibacterial activity against methicillin-resistant Staphylococcus aureus CCARM 3090 assessed as reduction in bacterial growth incubated for 24 hrs in presence of chloramphenicol by CLSI based broth dilution method; format: functional; conditions: read-out: MIC100
[13] = tested on: Lipopolysaccharide (LPS); assay: Inhibition of Escherichia coli O111:B4 LPS aggregation assessed as increase in FITC-LPS dissociation by spectrofluorometry
[14] = tested on: RAW264.7; assay: Antiinflammatory activity against mouse RAW264.7 cells assessed as reduction in LPS-induced TNFalpha mRNA expression at 10 uM incubated for 3 hrs by qRT-PCR analysis; format: functional, cell-based
[15] = Drug uptake in Escherichia coli KCTC 1682 assessed as cytoplasmic accumulation at 2 times MIC incubated for 30 mins by confocal laser scanning microscopy; format: ADME; conditions: 0.5 h
[16] = tested on: Escherichia coli; assay: Antibacterial activity against Escherichia coli KCTC 1682 assessed as reduction in bacterial growth incubated for 24 hrs in presence of 4 uM FeCl3 by CLSI based broth dilution method; format: functional; conditions: read-out: MIC100
[17] = tested on: Staphylococcus aureus; assay: Antibacterial activity against Staphylococcus aureus KCTC 1621 assessed as reduction in bacterial growth incubated for 24 hrs in presence of 1 mM MgCl2 by CLSI based broth dilution method; format: functional; conditions: read-out: MIC100
[18] = Cytotoxicity against mouse NIH/3T3 cells assessed as reduction in cell viability at 20 uM incubated for 24 hrs by MTT assay; format: cell-based, NIH3T3; conditions: NIH/3T3 cells, read-out: INH
[19] = tested on: Bacteria; assay: Antibacterial activity against Gram positive bacteria assessed as reduction in bacterial growth incubated for 24 hrs by CLSI based broth dilution method; format: functional; conditions: read-out: MIC100
[20] = tested on: RAW264.7; assay: Antiinflammatory activity against mouse RAW264.7 cells assessed as reduction in LPS-induced nitrite level at 5 uM incubated for 24 hrs by Griess reagent based assay relative to control; format: functional
[21] = tested on: Staphylococcus aureus; assay: Antibacterial activity against Staphylococcus aureus KCTC 1621 assessed as reduction in bacterial growth incubated for 24 hrs in presence of 2.5 mM CaCl2 by CLSI based broth dilution method; format: functional; conditions: read-out: MIC100
[22] = tested on: Escherichia coli; assay: Antibacterial activity against Escherichia coli KCTC 1682 assessed as reduction in bacterial growth incubated for 24 hrs in presence of 150 mM NaCl by CLSI based broth dilution method; format: functional; conditions: read-out: MIC100
[23] = tested on: Staphylococcus aureus; assay: Antibacterial activity against methicillin-resistant Staphylococcus aureus CCARM 3095 assessed as reduction in bacterial growth incubated for 24 hrs by CLSI based broth dilution method; format: functional; conditions: read-out: MIC100
[24] = tested on: Escherichia coli; assay: Antibacterial activity against Escherichia coli KCTC 1682 assessed as reduction in bacterial growth incubated for 24 hrs in presence of 1 mM MgCl2 by CLSI based broth dilution method; format: functional; conditions: read-out: MIC100
[25] = Cytotoxicity against mouse RAW264.7 cells assessed as reduction in cell viability at 20 uM incubated for 24 hrs by MTT assay; format: cell-based; conditions: read-out: INH
[26] = tested on: Candida albicans; assay: Antifungal activity against Candida albicans KCTC 7965 assessed as reduction in fungal growth incubated for 24 hrs by CLSI based broth dilution method; format: functional; conditions: read-out: MIC100
[27] = Therapeutic index, ratio of HC10 for sheep RBC to geometric mean MIC for yeast; format: toxicity; conditions: sheep red blood cells, read-out: TI
[28] = tested on: Cell membrane; assay: Induction of cell membrane permeability in Staphylococcus aureus KCTC 1621 assessed as cytoplasmic membrane depolarization at 16 uM by SYTOX dye based fluorescence assay; format: subcellular
[29] = tested on: Staphylococcus aureus; assay: Antibacterial activity against Staphylococcus aureus KCTC 1621 assessed as reduction in bacterial growth incubated for 24 hrs in presence of 20 % serum by CLSI based broth dilution method; format: functional; conditions: read-out: MIC100
[30] = tested on: Escherichia coli; assay: Antibacterial activity against Escherichia coli KCTC 1682 assessed as reduction in bacterial growth incubated for 24 hrs in presence of 2.5 mM CaCl2 by CLSI based broth dilution method; format: functional; conditions: read-out: MIC100
[31] = Retention time of the compound by RP-HPLC method; format: physicochemical
[32] = Antibacterial activity against multidrug-resistant Pseudomonas aeruginosa CCARM 2095 assessed as reduction in bacterial growth incubated for 24 hrs in presence of chloramphenicol by CLSI based broth dilution method; format: functional; conditions: read-out: MIC100
[33] = tested on: Staphylococcus aureus; assay: Antibacterial activity against Staphylococcus aureus KCTC 1621 assessed as reduction in bacterial growth incubated for 24 hrs in presence of 4 uM FeCl3 by CLSI based broth dilution method; format: functional; conditions: read-out: MIC100
[34] = tested on: Staphylococcus aureus; assay: Antibacterial activity against Staphylococcus aureus KCTC 1621 assessed as reduction in bacterial growth incubated for 24 hrs in presence of 150 mM NaCl by CLSI based broth dilution method; format: functional; conditions: read-out: MIC100
[35] = tested on: Candida albicans; assay: Antifungal activity against Candida albicans KCTC 7121 assessed as reduction in fungal growth incubated for 24 hrs by CLSI based broth dilution method; format: functional; conditions: read-out: MIC100
[36] = Antibacterial activity against multidrug-resistant Pseudomonas aeruginosa CCARM 2095 assessed as reduction in bacterial growth incubated for 24 hrs in presence of ciprofloxacin by CLSI based broth dilution method; format: functional; conditions: read-out: MIC100
[37] = tested on: Staphylococcus aureus; assay: Antibacterial activity against methicillin-resistant Staphylococcus aureus CCARM 3090 assessed as fractional inhibitory concentration index incubated for 24 hrs in presence of oxacillin by CLSI based broth dilution method; format: functional

| Substance | MIC [1] [µM] | fractional inhibitory concentration index (FICI) [2] | Activity [3] [%] | MIC [4] [µM] | MIC [5] [µM] | MIC [6] [µM] | Activity [7] [%] | Activity [8] [log10CFU/ml] | fractional inhibitory concentration index (FICI) [9] | MIC [10] [µM] | FIC [11] | MIC [12] [µM] | inhibition [13] | inhibition [14] | Drug uptake [15] | MIC [16] [µM] | MIC [17] [µM] | cytotoxicity at 24 h, 20 µM [18] [%] | MIC [19] [µM] | inhibition at 5 µM [20] [%] | further results |
| --- | --- | --- | --- | --- | --- | --- | --- | --- | --- | --- | --- | --- | --- | --- | --- | --- | --- | --- | --- | --- | --- |
| H-LIKKIYRKWKRW-NH2 | 8 | 0.375 | 24.41 | 2 | 8 | 6 | 100 | <2 | 0.5 | 2 | 0.25 | 32 | Dose-dependent effect | Active | Active | 8 | 4 | < 10 | 7.1 | 51.4 | MIC [21]: 4 µM; MIC [22]: 4 µM; MIC [23]: 8 µM; MIC [24]: 8 µM; cytotoxicity at 24 h, 20 µM [25]: < 10%; MIC [26]: 8 µM; selectivity ratio [27]: 853; Activity [28]: inactive; MIC [29]: 4 µM; MIC [30]: 8 µM; Retention_time [31]: 16.2 min; MIC [32]: 64 µM; MIC [33]: 8 µM; MIC [34]: 8 µM; MIC [35]: 4 µM; MIC [36]: 64 µM; fractional inhibitory concentration index (FICI) [37]: 0.375 |
| H-LWKKIYRKWKRW-NH2 | 8 | 0.375 | 15.47 | 2 | 2 | 6 | 100 | <2 | 0.5 | 2 | 0.125 | 32 | Dose-dependent effect | Active | Active | 8 | 4 | < 10 | 6.8 | 91.6 | MIC [21]: 4 µM; MIC [22]: 4 µM; MIC [23]: 8 µM; MIC [24]: 4 µM; cytotoxicity at 24 h, 20 µM [25]: < 10%; MIC [26]: 8 µM; selectivity ratio [27]: 853; Activity [28]: inactive; MIC [29]: 4 µM; MIC [30]: 4 µM; Retention_time [31]: 17.3 min; MIC [32]: 128 µM; MIC [33]: 8 µM; MIC [34]: 2 µM; MIC [35]: 4 µM; MIC [36]: 64 µM; fractional inhibitory concentration index (FICI) [37]: 0.375 |
